Legend:
cytochrome P450 1A2 = target: T1, cytochrome P450 1A2 (Homo sapiens, UniProt P05177); conditions: cited from earlier work
T1 sequence (P05177 1-516): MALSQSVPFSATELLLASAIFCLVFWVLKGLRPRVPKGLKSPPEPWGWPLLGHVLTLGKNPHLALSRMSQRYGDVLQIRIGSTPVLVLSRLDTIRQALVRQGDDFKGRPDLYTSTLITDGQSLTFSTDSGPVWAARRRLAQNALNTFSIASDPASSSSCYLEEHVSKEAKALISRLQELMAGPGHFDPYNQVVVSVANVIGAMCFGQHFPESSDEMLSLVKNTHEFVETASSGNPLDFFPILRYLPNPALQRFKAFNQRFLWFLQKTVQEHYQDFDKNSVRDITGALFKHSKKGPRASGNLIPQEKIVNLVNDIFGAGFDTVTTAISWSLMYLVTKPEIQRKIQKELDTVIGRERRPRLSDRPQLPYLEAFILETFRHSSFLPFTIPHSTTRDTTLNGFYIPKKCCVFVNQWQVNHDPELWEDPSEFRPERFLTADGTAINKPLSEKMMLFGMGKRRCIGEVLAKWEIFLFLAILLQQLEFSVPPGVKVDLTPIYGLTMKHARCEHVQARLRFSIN

[1] = intravenous administration, rhesus monkeys; cited from earlier work
male Harlan CD-1 mice = conditions: literature; cited from earlier work
[2] = tested on: N-methyl-D-aspartate (NMDA) receptor; conditions: at higher concentrations; cited from earlier work
mGluR4 = mGluR4 (Homo sapiens, UniProt Q14833); conditions: cited from earlier work
mGluR4, sequence (Q14833 33-912): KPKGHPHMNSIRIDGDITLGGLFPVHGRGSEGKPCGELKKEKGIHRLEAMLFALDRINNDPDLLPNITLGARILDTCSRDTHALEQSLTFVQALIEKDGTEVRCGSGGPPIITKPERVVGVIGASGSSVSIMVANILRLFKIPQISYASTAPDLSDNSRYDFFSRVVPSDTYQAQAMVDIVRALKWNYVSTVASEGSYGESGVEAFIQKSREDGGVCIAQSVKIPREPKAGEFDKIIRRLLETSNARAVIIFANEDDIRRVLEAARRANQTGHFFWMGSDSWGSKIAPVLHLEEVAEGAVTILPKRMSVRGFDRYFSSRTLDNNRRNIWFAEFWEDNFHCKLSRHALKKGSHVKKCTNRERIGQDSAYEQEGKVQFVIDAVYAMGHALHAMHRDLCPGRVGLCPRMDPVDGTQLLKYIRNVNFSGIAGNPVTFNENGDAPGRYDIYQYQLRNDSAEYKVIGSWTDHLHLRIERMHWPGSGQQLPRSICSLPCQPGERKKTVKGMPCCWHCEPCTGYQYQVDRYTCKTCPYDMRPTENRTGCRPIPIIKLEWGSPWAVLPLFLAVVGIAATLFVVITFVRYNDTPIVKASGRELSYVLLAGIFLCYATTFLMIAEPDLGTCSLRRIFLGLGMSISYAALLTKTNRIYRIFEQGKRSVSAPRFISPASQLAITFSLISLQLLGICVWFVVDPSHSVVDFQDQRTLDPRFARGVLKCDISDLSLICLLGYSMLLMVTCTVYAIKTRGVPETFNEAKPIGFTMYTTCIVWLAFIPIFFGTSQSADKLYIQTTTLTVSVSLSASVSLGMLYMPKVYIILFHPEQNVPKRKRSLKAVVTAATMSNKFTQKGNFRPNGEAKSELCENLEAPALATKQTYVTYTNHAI

rat mGluR5 = target: T2, rat mGluR5 (Rattus norvegicus, UniProt P31424); test: mGluR5 calcium mobilization assay (FDSS, Fluo-4) in HEK 293A cells stably expressing rat mGluR5; assay type: cell-based; conditions: HEK cells transfected with rat mGluR5; antagonism of glutamate EC80 response; ± = standard error of at least three experiments
T2 construct: expressed in transfected cells
T2 sequence (P31424 21-1171 isoform P31424-2 limits assumed): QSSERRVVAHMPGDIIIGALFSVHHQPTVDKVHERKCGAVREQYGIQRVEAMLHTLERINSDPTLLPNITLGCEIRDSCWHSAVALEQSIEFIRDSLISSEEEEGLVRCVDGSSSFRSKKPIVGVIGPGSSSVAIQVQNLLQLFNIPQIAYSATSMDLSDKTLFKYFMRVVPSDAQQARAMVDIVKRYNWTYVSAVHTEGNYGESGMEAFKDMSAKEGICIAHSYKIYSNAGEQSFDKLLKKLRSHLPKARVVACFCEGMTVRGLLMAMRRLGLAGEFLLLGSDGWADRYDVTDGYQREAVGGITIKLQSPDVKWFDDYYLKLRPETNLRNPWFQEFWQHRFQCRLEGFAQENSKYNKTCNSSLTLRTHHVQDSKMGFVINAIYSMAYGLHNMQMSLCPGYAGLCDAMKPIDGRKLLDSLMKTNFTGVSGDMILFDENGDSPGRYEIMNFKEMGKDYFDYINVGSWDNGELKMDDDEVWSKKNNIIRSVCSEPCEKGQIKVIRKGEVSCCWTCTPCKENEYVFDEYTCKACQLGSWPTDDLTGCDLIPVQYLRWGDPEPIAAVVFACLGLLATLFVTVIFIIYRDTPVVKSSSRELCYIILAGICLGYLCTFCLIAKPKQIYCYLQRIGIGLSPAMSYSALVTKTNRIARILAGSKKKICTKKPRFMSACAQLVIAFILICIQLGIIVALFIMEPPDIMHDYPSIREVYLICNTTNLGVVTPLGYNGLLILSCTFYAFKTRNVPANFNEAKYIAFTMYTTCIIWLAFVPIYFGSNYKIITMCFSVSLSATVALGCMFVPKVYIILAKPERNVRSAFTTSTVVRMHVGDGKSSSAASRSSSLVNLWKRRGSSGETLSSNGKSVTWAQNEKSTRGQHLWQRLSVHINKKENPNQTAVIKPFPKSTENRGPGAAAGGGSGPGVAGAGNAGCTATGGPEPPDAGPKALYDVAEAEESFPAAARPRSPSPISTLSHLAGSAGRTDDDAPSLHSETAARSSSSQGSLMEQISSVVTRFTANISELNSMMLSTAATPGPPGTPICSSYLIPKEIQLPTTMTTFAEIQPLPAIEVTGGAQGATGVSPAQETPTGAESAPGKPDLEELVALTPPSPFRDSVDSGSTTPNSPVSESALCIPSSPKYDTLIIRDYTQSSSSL
Experimental: Human embryonic kidney (HEK) cells transfected with rat or human mGluR5 were plated in clear bottom assay plates for assay in a Functional Drug Screening System (FDSS). The cells were loaded with a Ca^2+-sensitive fluorescent dye (e.g., Fluo-4), and the plates were washed and placed in the FDSS instrument. Test compound was applied to cells 3 seconds after baseline readings were taken. Cells were incubated with the test compounds for 140 seconds and then stimulated with an EC20 concentration of an mGluR5 agonist (e.g., glutamate, 3,5-dihydroxyphenylglycine, or quisqualate); 60-80 seconds later an EC80 concentration of agonist was added and readings taken for an additional 40 seconds. Data were collected at 1 Hz. […] Concentration response curves were generated using a four parameter logistical equation.
The above described assay was operated in two modes. In the first mode (utilizing a triple add protocol), a range of concentrations of the present compounds were added to cells, followed by two single fixed concentrations of agonist (EC20 followed by EC80). If a compound acted as a potentiator, an EC50 value for potentiation of the EC20 response and a maximum extent of potentiation by the compound at this concentration of agonist was determined by non-linear curve fitting. If a compound acted as an antagonist, an IC50 value for antagonism of the EC80 response and a maximum extent of antagonism by the compound at this concentration of agonist was determined by non-linear curve fitting. In the second mode (utilizing a double add protocol), several fixed concentrations of the present compounds were added to various wells on a plate, followed by a range of concentrations of agonist for each concentration of present compound; the EC50 values for the agonist at each concentration of compound were determined by nonlinear curve fitting. A decrease in the EC50 value of the agonist with increasing concentrations of the present compounds (a leftward shift of the agonist concentration-response curve) is an indication of the degree of mGluR5 positive allosteric modulation at a given concentration of the present compound. An increase in the EC50 value of the agonist with increasing concentrations of the present compounds (a rightward shift of the agonist concentration response curve) is an indication of the degree of mGluR5 antagonism at a given concentration of the present compound. The second mode also indicates whether the present compounds also affect the maximum response to mGluR5 to agonists.
The mGluR5 activity was determined using the calcium mobilization assays in human embryonic kidney cells as described herein below, wherein the human embryonic kidney cells were transfected with rat mGluR5. The mGluR5 activity data for some compounds are shown as the average of at least three experiments with the standard error in these cases. If no error is indicated for the mGluR5 activity, the values given represent the results from a single experiment or the average of two experiments. The compounds in Table 1 were synthesized with methods identical or analogous to those shown herein. The requisite starting materials were commercially available, described in the literature, or readily synthesized by one skilled in the art of organic synthesis.
GluMax is the amplitude of response in the presence of 30 μM test compound as a percentage of maximal response (100 μM glutamate). Partial antagonists display concentration-response curves (CRCs) that plateau above 10%.
The preparation of rat mGluR5 stable cell-lines is as previously described (e.g. see Romano et al. J Biol. Chem. 1996 Nov. 8; 271(45):28612-6).

Structure (SMILES) | IC50 (rat mGluR5) | other results
Cc1nc(C#Cc2cccnc2)cs1 [MTEP, 3-[(2-methyl-1,3-thiazol-4-yl)ethynyl]pyridine] |  | cytochrome P450 1A2 inhibition (cytochrome P450 1A2): potent inhibitor; clearance [1]: efficiently cleared
CN1CC(=O)N=C1NC(=O)Nc1cccc(Cl)c1 [fenobam, 1-(3-chlorophenyl)-3-(1-methyl-4-oxo-4,5-dihydro-1H-imidazol-2-yl)urea] |  | effect in marble burying model (male Harlan CD-1 mice): effective
Cc1cccc(C#Cc2ccccc2)n1 [MPEP, 2-methyl-6-(phenylethynyl) pyridine] |  | NMDA receptor activity [2]: directly inhibit; activity at mGluR4 (mGluR4): positive allosteric modulator; effect in marble burying model (male Harlan CD-1 mice): effective
O=C(Nc1nc(C(F)F)cs1)c1cc(Oc2cncnc2)cn2ncnc12 | 0.214 µM | 
CCc1cccc(NC(=O)c2cc(Oc3cncc(Cl)c3)cn3cnnc23)n1 | 1.34 µM | 
Cc1nc(NC(=O)c2cc(Oc3cncnc3)cn3ncnc23)ccc1F | 0.296 µM | 
O=C(Nc1cccc(F)n1)c1cc(Oc2cncc(Cl)c2)cn2ncnc12 | 0.062 µM | 
[2H]c1nc(NC(=O)c2cc(Oc3cncnc3)cn3cnnc23)c([2H])c([2H])c1[2H] | 0.469 µM | 
[2H]c1nc(NC(=O)c2cc(Oc3cncc(Cl)c3)cn3cnnc23)c([2H])c([2H])c1[2H] | 0.217 µM | 
O=C(Nc1ccccn1)c1cc(Oc2cc(F)cnc2F)cn2ncnc12 | 0.086 µM | 
Cc1nc(NC(=O)c2cc(Oc3cccnc3)cn3ncnc23)ccc1F | 0.119 µM | 
O=C(Nc1ccccn1)c1cc(Oc2cncc(F)c2)cn2ncnc12 | 0.025 µM | 

From US9844542B2, “Substituted imidazopyridine and triazolopyridine compounds as negative allosteric modulators of mGluR5” (Vanderbilt University, priority 2013, dated 2017)
